The text below walks through data of patent US7432392B2, “Ester derivatives and medical use thereof” (Japan Tobacco Inc., priority 2003, dated 2008).

In the assay the target is T1, Microsomal triglyceride transfer protein (MTP) from bovine liver (Bos taurus, UniProt P55156).
T1 construct: the purified MTP was used for the test; from tissue; host or cells: bovine liver
T1 sequence (P55156 12-887): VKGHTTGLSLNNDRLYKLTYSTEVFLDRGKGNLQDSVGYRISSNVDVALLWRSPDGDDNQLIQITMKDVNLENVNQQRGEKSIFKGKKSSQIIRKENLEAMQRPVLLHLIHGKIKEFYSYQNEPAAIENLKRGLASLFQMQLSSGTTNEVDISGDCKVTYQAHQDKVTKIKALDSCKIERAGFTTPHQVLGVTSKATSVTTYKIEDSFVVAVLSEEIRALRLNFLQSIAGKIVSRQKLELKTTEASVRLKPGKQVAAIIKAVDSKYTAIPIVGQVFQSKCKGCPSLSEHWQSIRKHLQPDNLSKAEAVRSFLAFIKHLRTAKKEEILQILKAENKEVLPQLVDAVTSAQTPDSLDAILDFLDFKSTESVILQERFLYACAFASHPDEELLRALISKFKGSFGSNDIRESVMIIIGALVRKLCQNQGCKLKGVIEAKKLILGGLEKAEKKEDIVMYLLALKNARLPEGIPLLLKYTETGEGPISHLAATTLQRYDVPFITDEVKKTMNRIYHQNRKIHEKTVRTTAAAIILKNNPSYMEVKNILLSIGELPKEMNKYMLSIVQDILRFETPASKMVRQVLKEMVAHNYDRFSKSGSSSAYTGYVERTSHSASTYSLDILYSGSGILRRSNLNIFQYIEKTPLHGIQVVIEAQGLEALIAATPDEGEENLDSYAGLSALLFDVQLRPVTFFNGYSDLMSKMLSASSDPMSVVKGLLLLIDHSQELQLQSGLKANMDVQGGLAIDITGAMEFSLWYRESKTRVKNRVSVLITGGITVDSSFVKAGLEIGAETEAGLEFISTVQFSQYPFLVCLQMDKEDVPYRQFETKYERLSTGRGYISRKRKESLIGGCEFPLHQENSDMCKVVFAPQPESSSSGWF
T1 sequence (P05307 21-510 partner): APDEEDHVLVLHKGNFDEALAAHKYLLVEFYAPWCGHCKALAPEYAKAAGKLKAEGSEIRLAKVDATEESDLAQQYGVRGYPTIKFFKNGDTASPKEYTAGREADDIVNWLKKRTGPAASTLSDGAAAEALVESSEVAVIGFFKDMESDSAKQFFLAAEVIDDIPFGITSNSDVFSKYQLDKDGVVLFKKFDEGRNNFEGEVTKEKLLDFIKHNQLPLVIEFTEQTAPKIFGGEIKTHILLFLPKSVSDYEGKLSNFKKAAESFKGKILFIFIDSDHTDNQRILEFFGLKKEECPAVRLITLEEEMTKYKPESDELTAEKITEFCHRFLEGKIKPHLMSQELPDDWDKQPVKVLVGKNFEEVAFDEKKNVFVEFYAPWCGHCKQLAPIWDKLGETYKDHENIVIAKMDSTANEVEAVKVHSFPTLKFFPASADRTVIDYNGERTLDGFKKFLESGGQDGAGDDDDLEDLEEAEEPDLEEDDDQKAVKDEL
Description: Inhibition of interliposomal triglyceride (TG) transfer activity by MTP. It counts as biochemical. Conditions: MTP-mediated TG transfer between donor and acceptor liposomes, 37° C., one hour. As for the experimental part: Microsomal triglyceride transfer protein (MTP) from bovine liver was partially purified in such a way described below. A buffer (50 mM Tris, 250 mM sucrose, 1 mM EDTA, 0.02% NaN3 (pH 7.4)) for making a homogenate preparation was added to bovine liver, and the mixture was homogenated under ice-cooling, then centrifuged at 10,000×g (4° C., 30 minutes) The supernatant was adjusted to pH 5.1 with hydrochloric acid, and stirred for 30 minutes. The solution was further centrifuged at 10,000×g (4° C., 30 minutes), and 1 mM Tris buffer was added to the precipitated residue, and the mixture was adjusted to pH 8.6 with sodium hydroxide. After addition of 2.7 M ammonium sulfate solution, the mixture was stirred for 30 minutes, then centrifuged at 10,000×g (4° C., 40 minutes). The resulting supernatant was served as a crude extraction fraction of MTP and stored at −80° C. under freezing. In its practical use, the crude extraction fraction of MTP was purified by column chromatography on diethylaminoethyl (DEAE) Sepharose using FPLC (Fast Performance Liquid Chromatography) system, and the purified MTP was used for the test.
Small unilamellar-vesicle (SUV) liposome (donor, 0.25 mol % triolein, 5 mol % cardiolipin) labeled with ^14C-triolein and non-labeled SUV liposome (acceptor, 0.25 mol % triolein) were prepared. A fixed amount of donor and acceptor, and MTP were mixed with a sample dissolved in DMSO or with DMSO. The mixture was incubated in a 15 mM Tris hydrochloride buffer (pH 7.4) containing 40 mM sodium chloride, 1 mM EDTA (ethylenediaminetetraacetic acid), 0.02% NaN3 and 0.5% bovine serum albumin at 37° C. for one hour. After completion of the incubation, a suspension of DEAE cellulose (50% v/v) in 15 mM Tris hydrochloride buffer (pH 7.4) was added to the above solution, and the mixture was centrifuged to separate the donor and the acceptor. The radioactivity in the acceptor was measured by liquid scintillation counter. The value obtained by subtracting the radioactivity in the blank from the amount of radioactivity in the acceptor of a DMSO group was determined as MTP-mediated TG transfer activity, and it was compared with the value obtained by subtracting the radioactivity in the blank from the radioactivity in a sample group. The blank was prepared by adding 15 mM Tris-HCl buffer (pH 7.4) in place of MTP. Inhibition rate (%) was calculated from the values obtained according to the following equation.
Inhibition rate (%)=100×(1 minus ((radioactivity of sample group minus radioactivity of blank group)/(radioactivity of DMSO group minus radioactivity of blank group))). 50% Inhibition rate (IC50) was determined on the basis of the above equation.

Regarding `CCNC(=O)C(COC(=O)Oc1cc(C(=O)N(C)C)c(NC(=O)c2ccccc2-c2ccc(C(F)(F)F)cc2)cc1F)(C(=O)NCC)c1ccccc1` [Example 2-11], the IC50 lay in the range of 100 to 1000 nM.

With `CCOC(=O)C(COC(=O)Oc1ccc(NC(=O)c2ccc(C)cc2-c2ccc(C(F)(F)F)cc2)c(C(=O)N(C)C)c1)(C(=O)OCC)c1ccccc1` [Example 2-8], the 50% inhibitory concentration (IC50) is less than 10 nM. With `CCOC(=O)C(CCC(=O)Oc1c(F)cc(NC(=O)c2ccccc2-c2ccc(C(F)(F)F)cc2)c(C(=O)N(C)C)c1F)(C(=O)OCC)c1cccs1` [Example 3-20], the IC50 is less than 10 nM.

The compound `CCOC(=O)C(COC(=O)Oc1cc(C(=O)N(C)C)c(NC(=O)c2ccccc2-c2ccc(C(F)(F)F)cc2)cc1Cl)(C(=O)OCC)c1ccccc1` [Example 2-6] displayed an IC50 of less than 10 nM. With `CCOC(=O)C(COC(=O)Oc1c(F)cc(NC(=O)c2ccccc2-c2ccc(C(F)(F)F)cc2)c(OC)c1F)(C(=O)OCC)c1cccs1` [Example 2-48], the IC50 was less than 10 nM. As for `CCNC(=O)C(COCCC(=O)Oc1c(F)cc(NC(=O)c2ccccc2-c2ccc(C(F)(F)F)cc2)c(C(=O)N(C)C)c1F)(C(=O)NCC)c1ccccc1` [Example 3-16], the IC50 is less than 10 nM.

`CCOC(=O)C(COC(=O)Oc1ccc(NC(=O)c2cnc(NC)nc2-c2ccc(C(F)(F)F)cc2)c(C(=O)N(C)C)c1)(C(=O)OCC)c1ccccc1` [Example 2-27] registered a concentration for half-maximal inhibition (IC50) of 10 to 100 nM. The value for `CCOC(=O)C(COC(=O)Oc1ccc(NC(=O)c2ccccc2-c2ccc(C(F)(F)F)cc2)c(C(=O)N2CCCC2)c1)(C(=O)OCC)c1ccccc1` [Example 2-14] was less than 10 nM; that for `CCOC(=O)C(CC(=O)OCc1ccc(NC(=O)c2ccccc2-c2ccc(C(F)(F)F)cc2)c(C(=O)N(C)C)c1)(C(=O)OCC)c1ccccc1` [Example 3-5] was less than 10 nM. In turn, `CCNC(=O)C(COCCC(=O)Oc1ccc(NC(=O)c2ccccc2-c2ccc(C(F)(F)F)cc2)c(C(=O)N(C)C)c1)(C(=O)NCC)c1ccccc1` [Example 3-3, 3-(2,2′-Bisethylcarbamoyl-2-phenylethoxy)propionic acid 3-dimethylcarbamoyl-4-[(4′-trifluoromethylbiphenyl-2-carbonyl)amino]phenyl ester] returned an IC50 of less than 10 nM. Compound `CCOC(=O)C(COC(=O)Oc1c(F)cc(NC(=O)c2ccccc2-c2ccc(C(F)(F)F)cc2)c(OC(C)C)c1F)(C(=O)OCC)c1cccs1` [Example 2-52] displayed an IC50 of less than 10 nM. The value for `CCOC(=O)C(COC(=O)Oc1ccc(NC(=O)c2ccc(C)cc2-c2ccc(C(F)(F)F)cc2)c(C(=O)N(C)C)c1)(C(=O)OCC)c1cccs1` [Example 2-9] was less than 10 nM; that for `CCOC(=O)C(COC(=O)Oc1c(F)cc(NC(=O)c2ccc(C)cc2-c2ccc(C(F)(F)F)cc2)c(C(=O)N2CCOCC2)c1F)(C(=O)OCC)c1cccs1` [Example 2-43] was 10 to 100 nM; that for `CCOC(=O)C(COC(=O)Oc1c(F)cc(NC(=O)c2ccccc2-c2ccc(C(F)(F)F)cc2)c(OCC)c1F)(C(=O)OCC)c1cccs1` [Example 2-51] was less than 10 nM. The value for `CCCN(C)C(=O)c1cc(OC(=O)OCC(C(=O)OCC)(C(=O)OCC)c2ccccc2)ccc1NC(=O)c1ccccc1-c1ccc(C(F)(F)F)cc1` [Example 2-13] was less than 10 nM; that for `CCOC(=O)C(CCC(=O)Oc1c(F)cc(NC(=O)c2ccc(C)cc2-c2ccc(C(F)(F)F)cc2)c(C(=O)N(C)C)c1F)(C(=O)OCC)c1ccccc1` [Example 3-22] was less than 10 nM. The value for `CCOC(=O)C(COC(=O)Oc1c(F)cc(NC(=O)c2ccc(C)cc2-c2ccc(C(F)(F)F)cc2)c(C(=O)N(C)C)c1F)(C(=O)OCC)c1cccs1` [Example 2-29] was less than 10 nM.

As to `CCN(C)C(=O)C(COC(=O)Oc1c(F)cc(NC(=O)c2ccccc2-c2ccc(C(F)(F)F)cc2)c(C(=O)N(C)C)c1F)(C(=O)N(C)CC)c1ccccc1` [Example 2-31], the IC50 fell in the range of 10 to 100 nM. Consider `CCOC(=O)C(COC(=O)Oc1ccc(NC(=O)c2ccccc2-c2ccc(C(F)(F)F)cc2)c(C(=O)N(C)CC)c1)(C(=O)OCC)c1ccccc1` [Example 2-12], for which the IC50 is less than 10 nM. The value for `CCOC(=O)C(COC(=O)Oc1c(F)cc(NC(=O)c2ccccc2-c2ccc(C(F)(F)F)cc2)c(C(=O)N(C)CC(=O)OC)c1F)(C(=O)OCC)c1cccs1` [Example 2-42] was 10 to 100 nM; that for `CCOC(=O)C(COC(=O)OCc1ccc(NC(=O)c2ccccc2-c2ccc(C(F)(F)F)cc2)c(C(=O)N(C)C)c1)(C(=O)OCC)c1ccccc1` [Example 2-5] was less than 10 nM. The value for `CCOC(=O)C(COC(=O)Oc1c(F)cc(NC(=O)c2ccccc2-c2ccc(C(F)(F)F)cc2)c(C(=O)N(C)CCO)c1F)(C(=O)OCC)c1cccs1` [Example 2-45] was 100 to 1000 nM; that for `CCOC(=O)C(COC(=O)Oc1c(F)cc(NC(=O)c2cccc(F)c2-c2ccc(C(F)(F)F)cc2)c(C(=O)N(C)C)c1F)(C(=O)OCC)c1cccs1` [Example 2-33] was less than 10 nM. As for `CCOC(=O)C(COC(=O)Oc1ccc(NC(=O)c2ccc(C)nc2-c2ccc(C(F)(F)F)cc2)c(C(=O)N(C)C)c1)(C(=O)OCC)c1ccccn1` [Example 2-23], the figure is less than 10 nM. In turn, `CCOC(=O)C(CCC(=O)Oc1c(F)cc(NC(=O)c2ccc(C)cc2-c2ccc(C(F)(F)F)cc2)c(C(=O)N(C)C)c1F)(C(=O)OCC)c1cccs1` [Example 3-21] showed an IC50 of less than 10 nM. As for `CCOC(=O)C(COC(=O)Oc1c(F)cc(NC(=O)c2cccc(OC)c2-c2ccc(C(F)(F)F)cc2)c(C(=O)N(C)C)c1F)(C(=O)OCC)c1cccs1` [Example 2-36], the figure is less than 10 nM; as for `CCOC(=O)C(COC(=O)Oc1c(F)cc(NC(=O)c2ccccc2-c2ccc(C(F)(F)F)cc2)c(C(=O)N2CCC(O)CC2)c1F)(C(=O)OCC)c1cccs1` [Example 2-47], 100 to 1000 nM. As for `CCNC(=O)C(COCC(=O)Oc1ccc(NC(=O)c2ccccc2-c2ccc(C(F)(F)F)cc2)c(C(=O)N(C)C)c1)(C(=O)NCC)c1ccccc1` [Example 3-12], the figure is less than 10 nM. The value for `CCOC(=O)C(COC(=O)Oc1c(F)cc(NC(=O)c2ccccc2-c2ccc(C(F)(F)F)c(F)c2)c(C(=O)N(C)C)c1F)(C(=O)OCC)c1cccs1` [Example 2-40] was less than 10 nM.

Usually IC50 stands for the midpoint of a concentration-inhibition curve.
